Assays:
[1] = storage stability at 25° C. RH 60% for 3 months (crystal form, HPLC purity); assay type: physicochemical; settings: after standing for 3 months
Description: The maximum solubility of the sample obtained according to the above-mentioned examples is about 30 mg/mL, and the form remains unchanged when stored at 25° C. RH 60% for 3 months from the results of HPLC analysis (purity is detected by high performance liquid chromatography, and the liquid chromatographic column and liquid chromatography used are the same as those specified by JECFA in 2010).
Perparation of sample solution: Precisely 50-100 milligrams of rebaudioside A were weighed and placed in a 50 milliliter volumetric flask, and then a solution of water and acetonitrile in a ratio of 7:3 were added for dissolution to a scale of 50 milliliter. Detection step: 5 μl of a sample solution are injected under the following conditions. Chromatographic Column: A Capcell pak C18 MG II chromatographic column from the Shiseido company or a Luna 5μ C18(2) 100A chromatographic column from the Phenomenex company or a chromatographic column of equivalent specifications (length: 250 millimeters; inner diameter: 4.6 millimeters; packing particle size: 5 μm). Mobile Phase: a mixture of acetonitrile and a sodium phosphate buffer (specification: 10 mmol/L, pH value of 2.6) in a ratio of 32:68. […] Chromatographic Column temperature: detection patterns are recorded for about 30 minutes at 40° C. […]

[2] = large number of scientific experiments; cited from earlier work
[3] = dynamic vapor adsorption (DVS) hygroscopicity; assay type: physicochemical; settings: conventional storage environment 40%-80% RH; 25° C.
Description: “Dynamic vapor adsorption (DVS)” is an instrument for measuring the hygroscopicity of a sample. Its measurement method is known in the field. For example, an instrument from Surface Measurement Systems, Ltd. may be used to collect data of humidity ranging from 5% to 95% at 25 degrees Celsius. The weight deviation under each humidity is no more than ±0.02% within 10 min. The rebaudioside A Form 7 of the present invention has particular stability, which is conducive to storage. […] In a preferred embodiment, the DVS isotherm of the resulting rebaudioside A crystal form 7 is substantially identical to FIG. 4. DVS: All dynamic vapour adsorption (DVS) experimental data of the present invention are measured by a DVS Intrinsic dynamic vapour sorption instrument from SMS, UK. Measurement conditions: Temperature: 25° C.; Relative humidity range: 5%-95%.

purity change by HPLC compared to the starting material [1]	hygroscopicity in DVS patterns [3]	SMILES	toxicity and side effect [2]
less than 0.5%		C=C1C[C@@]23CC[C@H]4[C@@](C)(CCC[C@@]4(C)C(=O)O[C@@H]4O[C@H](CO)[C@@H](O)[C@H](O)[C@H]4O)[C@@H]2CC[C@]1(O[C@@H]1O[C@H](CO)[C@@H](O)[C@H](O[C@@H]2O[C@H](CO)[C@@H](O)[C@H](O)[C@H]2O)[C@H]1O[C@@H]1O[C@H](CO)[C@@H](O)[C@H](O)[C@H]1O)C3 [Rebaudioside A]	without any toxicity and side effect
	little hygroscopicity	C=C1C[C@@]23CC[C@H]4[C@@](C)(CCC[C@@]4(C)C(=O)O[C@@H]4O[C@H](CO)[C@@H](O)[C@H](O)[C@H]4O)[C@@H]2CC[C@]1(O[C@@H]1O[C@H](CO)[C@@H](O)[C@H](O[C@@H]2O[C@H](CO)[C@@H](O)[C@H](O)[C@H]2O)[C@H]1O[C@@H]1O[C@H](CO)[C@@H](O)[C@H](O)[C@H]1O)C3 [rebaudioside A Form 7, rebaudioside A]	

Reference: patent publication US20170051002A1, “Rebaudioside A Crystal And Its Preparation Method And Use” (Zhucheng Haotian Pharm Co., Ltd., priority 2014, published 2017)
